In paper PMC12291913 (Antibiotics, 2025):
Values joined by “and” are separate entries in the source; they are usually repeats but may differ in a detail not shown here. Equal entries are not always repeated. Where two headings read alike, the source gives them in different places.

Legend:
[1] = system: M. avium clinical isolate Koav 3 (GyrA Asp95Gly); type: cell-based, M. avium subsp. hominissuis
[2] = system: M. avium clinical isolate Koav 11 (GyrA Asp95Tyr); type: cell-based, M. avium subsp. hominissuis
[3] = system: M. avium clinical isolate Koav 13 (GyrA Asp95Gly); type: cell-based, M. avium subsp. hominissuis
[4] = system: M. avium clinical isolate Cl-A-2 (GyrA Asp95Tyr); type: cell-based, M. avium subsp. hominissuis
[5] = system: M. avium clinical isolate Koav 1 (WT); assay: microbe, parasite or virus in culture; type: cell-based; conditions: Mycobacterium avium, drug alone, day 14, read-out: MIC
[6] = system: M. avium clinical isolate Koav 2 (WT); assay: microbe, parasite or virus in culture; type: cell-based; conditions: Mycobacterium avium, drug alone, day 14
[7] = system: M. avium clinical isolate Koav 15 (WT); assay: microbe, parasite or virus in culture; type: cell-based; conditions: Mycobacterium avium, drug alone, day 14, read-out: MIC
[8] = system: M. avium clinical isolate Koav 19 (WT); assay: microbe, parasite or virus in culture; type: cell-based; conditions: Mycobacterium avium, drug alone, day 14, read-out: MIC
[9] = system: M. avium clinical isolate Koav 20 (WT); assay: microbe, parasite or virus in culture; type: cell-based; conditions: Mycobacterium avium, drug alone, day 14, read-out: MIC
[10] = system: M. avium clinical isolate Koav 21 (WT); assay: microbe, parasite or virus in culture; type: cell-based; conditions: Mycobacterium avium, drug alone, day 14, read-out: MIC
[11] = system: M. avium clinical isolate Koav 25 (WT); assay: microbe, parasite or virus in culture; type: cell-based; conditions: Mycobacterium avium, drug alone, day 14, read-out: MIC
[12] = system: M. avium clinical isolate Koav 3 (GyrA Asp95Gly); type: cell-based, M. avium subsp. hominissuis; remark: listed apart in the source
[13] = system: M. avium clinical isolate Koav 13 (GyrA Asp95Gly); type: cell-based, M. avium subsp. hominissuis; remark: listed apart in the source
[14] = system: M. avium clinical isolate Cl-A-2 (GyrA Asp95Tyr); type: cell-based, M. avium subsp. hominissuis; remark: listed apart in the source
[15] = system: M. avium clinical isolate Koav 1 (WT); assay: microbe, parasite or virus in culture; type: cell-based; conditions: checkerboard; for MIC of drug alone: single replicates; for MIC: Mycobacterium avium
[16] = system: M. avium clinical isolate Koav 2 (WT); assay: microbe, parasite or virus in culture; type: cell-based; conditions: checkerboard; for MIC: Mycobacterium avium
[17] = system: M. avium clinical isolate Koav 15 (WT); assay: microbe, parasite or virus in culture; type: cell-based; conditions: checkerboard; for MIC: Mycobacterium avium
[18] = system: M. avium clinical isolate Koav 19 (WT); assay: microbe, parasite or virus in culture; type: cell-based; conditions: for MIC: Mycobacterium avium
[19] = system: M. avium clinical isolate Koav 20 (WT); assay: microbe, parasite or virus in culture; type: cell-based; conditions: checkerboard; for MIC: Mycobacterium avium
[20] = system: M. avium clinical isolate Koav 21 (WT); assay: microbe, parasite or virus in culture; type: cell-based; conditions: checkerboard; for MIC: Mycobacterium avium
[21] = system: M. avium clinical isolate Koav 25 (WT); assay: microbe, parasite or virus in culture; type: cell-based; conditions: for FIC of INH or EMB: pair with WQ-3810; for MIC: Mycobacterium avium
[22] = system: M. avium clinical isolate Koav 11 (GyrA Asp95Tyr); type: cell-based, M. avium subsp. hominissuis; remark: listed apart in the source
[23] = read-out: MIC of INH or EMB with WQ-3810, Koav 1 (K 1), WT
[24] = Koav 2 (K 2), WT, single replicates, read-out: MIC of drug alone
[25] = read-out: MIC of INH or EMB with WQ-3810, Koav 2 (K 2), WT
[26] = Koav 15 (K 15), WT, single replicates, read-out: MIC of drug alone
[27] = read-out: MIC of INH or EMB with 1 µg/ml MXF, Koav 15 (K 15), WT
[28] = read-out: MIC of INH or EMB with WQ-3810, Koav 15 (K 15), WT
[29] = Koav 19 (K 19), WT, checkerboard, single replicates
[30] = Koav 19 (K 19), WT, pair with MXF
[31] = Koav 19 (K 19), WT, checkerboard, single replicates, read-out: MIC of drug alone
[32] = read-out: MIC of INH or EMB with 1 µg/ml MXF, Koav 19 (K 19), WT, checkerboard
[33] = Koav 21 (K 21), WT, single replicates, read-out: MIC of drug alone
[34] = read-out: MIC of INH or EMB with 1 µg/ml MXF, Koav 21 (K 21), WT
[35] = Koav 25 (K 25), WT, checkerboard
[36] = Koav 25 (K 25), WT, checkerboard, single replicates, read-out: MIC of drug alone
[37] = read-out: MIC of INH or EMB with 1 µg/ml MXF, Koav 25 (K 25), WT, checkerboard
[38] = read-out: MIC of INH or EMB with WQ-3810, Koav 25 (K 25), WT, checkerboard

CC[C@@H](CO)NCCN[C@@H](CC)CO [EMB, ethambutol]
8 µg/mL: MIC [16, 25] | MIC of INH or EMB with WQ-3810 ([17]; Koav 15 (K 15), WT) | MIC [17, 27] | MIC of INH or EMB with WQ-3810 ([18]; Koav 19 (K 19), WT, checkerboard) | MIC [18, 31] | MIC [18, 32] | MIC of INH or EMB with 1 µg/ml MXF [21, 35]
32 µg/mL: MIC [3] | MIC [10] | MIC [11] | MIC of drug alone [13] | MIC of drug alone ([16]; Koav 2 (K 2), WT, single replicates) | MIC [20, 33] | MIC [21, 36]
4 µg/mL: MIC [15, 23] | MIC of INH or EMB with 1 µg/ml MXF ([17]; Koav 15 (K 15), WT) | MIC [17, 28] | MIC ([18]; read-out: MIC of INH or EMB with WQ-3810, Koav 19 (K 19), WT, checkerboard)
8 µg/mL and 4 µg/mL and 2 µg/mL: MIC of drug alone ([15]; Koav 1 (K 1), WT)
4 µg/mL and 2 µg/mL: MIC of INH or EMB with 1 µg/ml MXF [12]
0.5 µg/mL: FIC of INH or EMB [18, 30] | FIC of INH or EMB ([18]; Koav 19 (K 19), WT, pair with WQ-3810) | FIC of INH or EMB ([21]; Koav 25 (K 25), WT)
1 µg/mL: MIC of INH or EMB with 1 µg/ml MXF ([20]; Koav 21 (K 21), WT)
16 µg/mL: MIC [1] | MIC [2] | MIC [4] | MIC [6] | MIC [7] | MIC [8] | MIC of INH or EMB with 1 µg/ml MXF [13] | MIC of drug alone [14] | MIC [16, 24] | MIC [17, 26] | MIC of drug alone [18, 29] | MIC ([20]; read-out: MIC of INH or EMB with WQ-3810, Koav 21 (K 21), WT) | MIC [21, 37] | MIC [21, 38]
2 µg/mL and 4 µg/mL: MIC of INH or EMB with 1 µg/ml MXF [14]
8 µg/mL and 16 µg/mL: MIC of INH or EMB with WQ-3810 [13]
2 µg/mL: MIC [5] | MIC [9] | MIC of INH or EMB with WQ-3810 ([15]; Koav 1 (K 1), WT) | MIC ([19]; Koav 20 (K 20), WT, single replicates, read-out: MIC of drug alone) | MIC [20, 34]

NNC(=O)c1ccncc1 [INH, isoniazid]
32 µg/mL: MIC [3] | MIC [7] | MIC of drug alone [13] | MIC [17, 26]
16 µg/mL: MIC [9] | MIC [10] | MIC [16, 25] | MIC of drug alone ([17]; Koav 15 (K 15), WT, single replicates) | MIC of drug alone [18, 29] | MIC [20, 33] | MIC of drug alone ([21]; Koav 25 (K 25), WT, checkerboard, single replicates)
2 µg/mL: MIC of INH or EMB with 1 µg/ml MXF [22] | MIC of INH or EMB with WQ-3810 [22] | MIC of INH or EMB with 1 µg/ml MXF [14] | MIC of INH or EMB with WQ-3810 [14] | MIC of INH or EMB with 1 µg/ml MXF ([15]; Koav 1 (K 1), WT) | MIC ([19]; read-out: MIC of INH or EMB with 1 µg/ml MXF, Koav 20 (K 20), WT) | MIC [21, 37] | MIC [21, 38]
4 µg/mL and 8 µg/mL: MIC of drug alone [12] | MIC of drug alone [14]
8 µg/mL and 4 µg/mL: MIC of INH or EMB with 1 µg/ml MXF [13] | MIC of INH or EMB with WQ-3810 [13]
4 to 8 µg/mL: MIC [4]
0.0625 µg/mL: FIC of INH or EMB [18, 30]
32 µg/mL and 16 µg/mL and 64 µg/mL: MIC of drug alone ([19]; Koav 20 (K 20), WT, single replicates)
4 µg/mL: MIC [1] | MIC [15, 23] | MIC of INH or EMB with 1 µg/ml MXF ([17]; Koav 15 (K 15), WT) | MIC [17, 28] | MIC of INH or EMB with 1 µg/ml MXF ([19]; Koav 20 (K 20), WT) | MIC of INH or EMB with WQ-3810 [21, 35]
0.5 µg/mL and 0.25 µg/mL: FIC of INH or EMB [14]
2 µg/mL and 1 µg/mL: MIC of INH or EMB with 1 µg/ml MXF [12] | MIC of INH or EMB with WQ-3810 [12]
8 to 16 µg/mL: MIC [8]
16 µg/mL and 32 µg/mL and 8 µg/mL: MIC of drug alone ([15]; Koav 1 (K 1), WT)
8 µg/mL: MIC [2] | MIC [5] | MIC [11] | MIC of INH or EMB with WQ-3810 ([15]; Koav 1 (K 1), WT) | MIC ([16]; read-out: MIC of INH or EMB with 1 µg/ml MXF, Koav 2 (K 2), WT) | MIC of INH or EMB with WQ-3810 ([17]; Koav 15 (K 15), WT) | MIC [17, 27] | MIC [18, 31] | MIC [21, 36]
8 µg/mL and 16 µg/mL: MIC of drug alone [22]
1 µg/mL: MIC ([15]; read-out: MIC of INH or EMB with 1 µg/ml MXF, Koav 1 (K 1), WT) | MIC [18, 32] | MIC [20, 34] | MIC of INH or EMB with 1 µg/ml MXF [21, 35]
128 µg/mL: MIC [6] | MIC [16, 24]
0.25 µg/mL: FIC of INH or EMB ([21]; Koav 25 (K 25), WT)
